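Method: 48-hour compound exposure of cells in 96-well plates, five concentrations, linear interpolation of endpoints. Here, GI50 denotes the concentration required for 50% inhibition of growth. TGI: total growth inhibition.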
Assays:
Assay in all cases: NCI-60 cell line screen, 48 h
A549 NSCLC = tested on: A549 NSCLC
SN12C renal = tested on: SN12C renal
HT29 colon = tested on: HT29 colon
HCT-116 colon = tested on: HCT-116 colon
COLO 205 colon = tested on: COLO 205 colon
HOP-92 NSCLC = tested on: HOP-92 NSCLC
ACHN renal = tested on: ACHN renal
DU-145 prostate = tested on: DU-145 prostate
BT-549 breast = tested on: BT-549 breast
MCF7 breast = tested on: MCF7 breast

Structure (SMILES) | TGI (A549 NSCLC) [µM] | TGI (SN12C renal) [µM] | TGI (HT29 colon) [µM] | TGI (HCT-116 colon) [µM] | TGI (COLO 205 colon) [µM] | TGI (HOP-92 NSCLC) [µM] | TGI (ACHN renal) [µM] | GI50 (DU-145 prostate) [µM] | TGI (DU-145 prostate) [µM] | GI50 (BT-549 breast) [µM] | TGI (BT-549 breast) [µM] | GI50 (A549 NSCLC) [µM] | GI50 (HCT-116 colon) [µM] | GI50 (MCF7 breast) [µM] | TGI (MCF7 breast) [µM] | GI50 (COLO 205 colon) [µM] | GI50 (HOP-92 NSCLC) [µM] | GI50 (ACHN renal) [µM] | GI50 (SN12C renal) [µM] | GI50 (HT29 colon) [µM]
Cc1nnc2c3nnc(C)n3c3ccccc3n12 | > 100 | > 100 | > 100 | > 100 | > 100 | > 100 | > 100 |  |  |  |  |  |  |  |  |  |  |  |  | 
N#CC1CCCCOCCOCCOCCOCCOCCCCCC1=O (stereo unspecified) | > 100 | > 100 | > 100 | > 100 | > 100 |  | > 100 |  |  |  |  |  |  |  |  |  |  |  |  | 
Cc1cc(-c2ccccc2)nc(Nc2nc3ccccc3o2)n1 | > 100 | > 100 | > 100 | > 100 | > 100 | > 100 | > 100 |  |  |  |  |  |  |  |  |  |  |  |  | 
COc1cc2c(cc1OC)C(Sc1ccc(SC)cc1)c1c(nc(N)c(C#N)c1N)O2 (stereo unspecified) | 3.68 |  |  | 3.01 | 3.41 | 3.86 | 3.06 | 1.75 | 3.17 | 1.38 | 2.67 | 2.05 | 1.62 | 1.1 | 3.54 | 1.71 | 1.96 | 1.69 |  | 
O=[N+]([O-])c1ccc(Cl)c(C2CC(c3cccc4ccccc34)=Nc3ccccc3S2)c1 (stereo unspecified) | > 100 | > 59.4 | > 59.7 | 38.7 | > 100 | 49.8 | > 100 |  |  |  |  |  |  |  |  |  |  |  |  | 
Oc1ccc(O)c(-c2cc(-c3ccc(Cl)cc3)nn2-c2ccccc2)c1 | 31 | 7.19 |  |  |  | 22.9 | 32.6 | 26.1 | 48.3 | 21 | 52.3 | 7.56 |  | 3.88 | > 100 |  | 2.71 | 18.6 | 2.88 | 
Nc1cc(O)ccc1N=Nc1ccc(-c2nc3ccccc3[nH]2)cc1 | > 100 | > 100 |  | > 100 | > 100 | 15.5 | > 100 | > 100 | > 100 | > 100 | > 100 | > 100 | 41.2 |  |  | 34.9 | 0.67 | 34 | 53.5 | 
Cc1ccc(NC(=O)C2C(=O)N(c3ccc(C)c(C)c3)C(=O)/C2=N\NC(N)=O)cc1C (stereo unspecified) | > 100 | > 100 | > 100 | > 100 | > 100 | > 100 | > 100 |  |  |  |  |  |  |  |  |  |  |  |  | 
CCCCCCCCCCCCCCCCNCCCN(C)CCCN | 32.1 | 41 | 35.8 | 38 | 46.6 |  | 34.9 |  |  |  |  |  |  |  |  |  |  |  |  | 
COc1ccccc1C1=C(Nc2ccccc2)C(=O)NC1=O | > 25 | > 25 | > 25 | > 25 | > 25 |  | > 25 | > 25 | > 25 | > 25 | > 25 | > 25 | 24.5 | > 25 | > 25 | > 18.9 |  | > 25 | > 25 | > 25
O=[N+]([O-])c1ccc(-c2noc(-c3ccc(Cl)cc3)c2C2=NCCN2)cc1 | > 100 | > 100 | > 100 | > 100 | > 100 |  | > 100 |  |  |  |  |  |  |  |  |  |  |  |  | 
COc1cccc(/C=N/NC(=S)NC2CC3CCC2C3)c1O (stereo unspecified) | 15.9 | 22.9 | 91.4 | 15.8 | > 100 |  | 8.14 | 9.79 | 22.8 | 14.5 | 57.3 | 4 | 4.01 | 4.74 | 27.1 | 96.7 |  | 2.5 | 5.09 | 30.1
Nc1nc(N)c(C=Nc2ccc(Br)cc2)c(Nc2ccc(Br)cc2)n1 | 29.6 | 33.6 | > 100 | 19.2 | 34.6 |  | 28 | 12.3 | 28.6 | 12.9 | 25.5 | 12.4 | 6.46 | 2.57 | 15.1 | 14.5 |  | 8.96 | 8.19 | 5.81
Cc1cccc(C(C)C)c1N1C(=O)C(=O)C(c2nc3ccccc3o2)C(=O)C1=O | > 100 | > 100 | > 100 | > 100 | > 100 | > 100 | > 100 |  |  |  |  |  |  |  |  |  |  |  |  | 
O=C(CCC(=O)Nc1ccc(Cl)c(Cl)c1)CC(=O)c1ccc(F)cc1 | > 100 | > 100 | > 100 | > 100 | > 100 | > 100 | > 100 |  |  |  |  |  |  |  |  |  |  |  |  | 
O=C(CSc1ncn[nH]1)C[P+](c1ccccc1)(c1ccccc1)c1ccccc1 | > 100 | > 100 |  |  | > 100 | > 100 | > 100 |  |  |  |  |  |  |  |  |  |  |  |  | 
CN(C)c1ccc(/C=C/c2ccc(/C=C/c3ccc(N(C)C)cc3)cc2)cc1 | > 100 | > 100 | > 100 | > 100 | > 100 | > 100 | > 100 |  |  |  |  |  |  |  |  |  |  |  |  | 
CCCCC(C)C(OC(=O)CC(CC(=O)O)C(=O)O)C(CC(C)CC(O)CCCCC(O)CC(O)C(C)N)OC(=O)CC(CC(=O)O)C(=O)O (stereo unspecified) | > 100 | > 100 | > 100 | > 100 | > 100 | > 100 | > 100 |  |  |  |  |  |  |  |  |  |  |  |  | 
O=C(CC1(O)C(=O)Nc2ccc(Br)cc21)c1ccc(Cl)cc1Cl (stereo unspecified) | > 100 | > 100 | > 100 | > 100 | > 100 |  | > 100 |  |  |  |  |  |  |  |  |  |  |  |  | 
O=S(=O)(O)c1ccc(N=Nc2nc(C(F)(F)F)c(C(F)(F)F)[nH]2)cc1 | > 100 | > 100 | > 100 | > 100 | > 100 | 31.6 | > 100 |  |  |  |  |  |  |  |  |  |  |  |  | 
O=C(O)C1CC2(C1)CC(C(=O)O)C2 (stereo unspecified) | > 100 | > 100 | > 100 | > 100 | > 100 |  | > 100 |  | > 100 |  | > 100 |  |  |  | > 100 |  |  |  |  | 
CN(C)C(=Nc1nc(=[N+](C)C)ss1)N(C)C | > 100 | > 100 | > 100 |  |  | > 100 | > 100 |  |  |  |  |  |  |  |  |  |  |  |  | 
